Laboratory results published in US20230203044A1, “PYRAZOLO[1,5-D][1,2,4]TRIAZINE-5(4H)-ACETAMIDES AS INHIBITORS OF THE NLRP3 INFLAMMASOME” (JANSSEN PHARMACEUTICA NV, priority 2020, published 2023).

Experiments:
NLRP3 inflammasome = test: PBMC assay: IL-1β in LPS-stimulated human PBMCs (MSD); type: cell-based; settings: human PBMCs, 100 ng/ml LPS for 6 hrs, IL-1β in supernatant via MSD, read-out: IL1β IC50
Protocol: The activity of a compound according to the present invention can be assessed by in vitro methods.
Peripheral venous blood was collected from healthy individuals and human peripheral blood mononuclear cells (PBMCs) were isolated from blood by Ficoll-Histopaque (Sigma-Aldrich, A0561) density gradient centrifugation. After isolation, PBMCs were stored in liquid nitrogen for later use. Upon thawing, PBMC cell viability was determined in growth medium (RPMI media supplemented with 10% fetal bovine serum, 1% Pen-Strep and 1% L-glutamine). […] PBMCs were added at a density of 7.5×10^4 cells per well and incubated for 30 min in a 5% CO2 incubator at 37° C. LPS stimulation was performed by addition of 100 ng/ml LPS (final concentration, Invivogen, tlrl-smlps) for 6 hrs followed by collection of cellular supernatant and the analysis of IL-1β (μM) and TNF cytokines levels (μM) via MSD technology according to manufacturers' guidelines (MSD, K151A0H).

TNF = test: PBMC assay: TNF cytokine levels in LPS-stimulated human PBMCs (MSD); type: cell-based; settings: 100 ng/ml LPS for 6 hrs, TNF in supernatant via MSD
Protocol: Peripheral venous blood was collected from healthy individuals and human peripheral blood mononuclear cells (PBMCs) were isolated from blood by Ficoll-Histopaque (Sigma-Aldrich, A0561) density gradient centrifugation. After isolation, PBMCs were stored in liquid nitrogen for later use. Upon thawing, PBMC cell viability was determined in growth medium (RPMI media supplemented with 10% fetal bovine serum, 1% Pen-Strep and 1% L-glutamine). Compounds were spotted in a 1:3 serial dilution in DMSO and diluted to the final concentration in 30 μl medium in 96 well plates (Falcon, 353072). PBMCs were added at a density of 7.5×10^4 cells per well and incubated for 30 min in a 5% CO2 incubator at 37° C. LPS stimulation was performed by addition of 100 ng/ml LPS (final concentration, Invivogen, tlrl-smlps) for 6 hrs followed by collection of cellular supernatant and the analysis of IL-1β (μM) and TNF cytokines levels (μM) via MSD technology according to manufacturers' guidelines (MSD, K151A0H).
The IC50 values (for IL-1β) and EC50 values (TNF) were obtained on compounds of the invention/examples, and are depicted in the following table: […]

Compound | IC50 (NLRP3 inflammasome) [µM] | EC50 (TNF) [µM]
Cc1c(NC(=O)Cn2nc(C(C)C)n3nc(C4CC4)cc3c2=O)ccnc1Cl [Final Cpd 124] | 0.61 | > 10
Cc1nn(CC(=O)NCc2cccnc2)c(=O)c2cc(C3CC3)nn12 [Final Cpd 49] | > 10 | > 10
CCc1cc2c(=O)n(CC(=O)N[C@H]3C[C@@](C)(O)C3)nc(C(C)C)n2n1 [Final Cpd 140] | 0.21 | > 10
CC(C)c1nn(CC(=O)Nc2cncnc2)c(=O)c2cc(C3CC3)nn12 [Final Cpd 115] | 1.72 | > 10
CC(C)c1nn(CC(=O)Nc2ccc3nncn3c2)c(=O)c2cc(CC(F)(F)F)nn12 [Final Cpd 159] | 2.24 | > 10
CC(C)c1nn(CC(=O)Nc2ccn3c(F)cnc3c2)c(=O)c2cc(C3CC3)nn12 [Final Cpd 136] | 1.41 | > 10
COCCN(C)c1nn(CC(=O)Nc2ccc3nncn3c2)c(=O)c2cc(C3CC3)nn12 [Final Cpd 38] | > 10 | > 10
Cc1ccncc1NC(=O)Cn1nc(C(C)C)n2nc(C3CC3)cc2c1=O [Final Cpd 138] | > 10 | > 10
CC(C)c1nn(CC(=O)Nc2ccn3cnnc3c2)c(=O)c2cc(C3CC3)nn12 [Final Cpd 93] | 1.51 | > 10
CC(C)c1nn(CC(=O)N[C@H]2C[C@@](C)(O)C2)c(=O)c2cc(C3CC3)nn12 [Final Cpd 8] | 0.24 | > 10
CC(C)c1nn(CC(=O)Nc2ccc3nncn3c2)c(=O)c2cc(C(C)(F)F)nn12 [Final Cpd 175, N-([1,2,4]triazolo[4,3-a]pyridin-6-yl)-2-(2-(1,1-difluoroethyl)isopropyl-4-oxopyrazolo[1,5-d][1,2,4]triazin-5(4H)-yl)acetamide] | 0.22 | > 10
Cc1nn(CC(=O)N[C@@H]2CCN(c3nc4cccnc4o3)C2)c(=O)c2cc(C3CC3)nn12 [Final Cpd 56] | 6.97 | > 10
CC(C)c1nn(CC(=O)Nc2ccn3ncnc3c2)c(=O)c2cc(C3CC3)nn12 [Final Cpd 103] | 0.56 | > 10
CC(C)c1nn(CC(=O)Nc2cc(C(F)F)[nH]n2)c(=O)c2cc(C3CC3)nn12 [Final Cpd 85] | 0.34 | > 10
CC(C)c1nn(CC(=O)N[C@@H]2CCC(=O)N(C)C2)c(=O)c2cc(C3CC3)nn12 [Final Cpd 30] | 1.43 | > 10
CCc1nn(CC(=O)Nc2ccc3nncn3c2)c(=O)c2cc(I)nn12 [Final Cpd 6] | 0.23 | > 10
CC(C)c1nn(CC(=O)N[C@@H]2CCOC[C@@H]2O)c(=O)c2cc(C3CC3)nn12 [Final Cpd 33] | 1.56 | > 10
CC(C)c1nn(CC(=O)Nc2ccc3nncn3c2)c(=O)c2cc(I)nn12 [Final Cpd 23] | 0.055 | > 10
CC(C)c1nn(CC(=O)Nc2cc(C(F)(F)F)ncn2)c(=O)c2cc(C3CC3)nn12 [Final Cpd 83] | > 10 | > 10
CCCc1cc2c(=O)n(CC(=O)Nc3ccncn3)nc(C(C)C)n2n1 [Final Cpd 12] | 0.6 | > 10
Cc1nn(CC(=O)NC2CCCC2O)c(=O)c2cc(C3CC3)nn12 (stereo not drawn) [Final Cpd 65] | 4.19 | > 10

Compound | IC50 (NLRP3 inflammasome) [µM] | EC50 (TNF) [µM]
Cc1nnc2n1CC(NC(=O)Cn1nc(C(C)C)n3nc(C4CC4)cc3c1=O)CC2 (stereo not drawn) [Final Cpd 84] | 0.63 | > 10
CCc1nn(CC(=O)Nc2ccncn2)c(=O)c2cc(NC)nn12 [Final Cpd 20] | 1.14 | > 10
CC(C)c1nn(CC(=O)Nc2ccc3nnc(C(F)(F)F)n3n2)c(=O)c2cc(C3CC3)nn12 [Final Cpd 168] | 0.84 | > 10
CC(C)c1nn(CC(=O)N[C@H]2CNCC[C@H]2O)c(=O)c2cc(C3CC3)nn12 [Final Cpd 188] | 0.74 | > 10
C[C@]1(O)C[C@@H](NC(=O)Cn2nc(CC3CCC3)n3nc(C4CC4)cc3c2=O)C1 [Final Cpd 198] | > 10 | > 10
CC(=O)c1cc2c(=O)n(CC(=O)Nc3ccncn3)nc(C(C)C)n2n1 [Final Cpd 183, 2-(2-acetyl-7-isopropyl-4-oxopyrazolo[1,5-d][1,2,4]triazin-5(4H)-yl)-N-(pyrimidin-4-yl)acetamide] | 5.04 | > 10
Cc1nn(CC(=O)NC2(CO)CCCC2)c(=O)c2cc(C3CC3)nn12 [Final Cpd 57] | > 10 | > 10
CC(C)c1nn(CC(=O)Nc2ccncn2)c(=O)c2cc(C(C)O)nn12 (stereo not drawn) [Final Cpd 185, 2-(2-(1-hydroxyethyl)-7-sopropyl-4-oxopyrazolo[1,5-d][1,2,4]triazin-5(4H)-yl)-N-(pyrimidin-4-yl)acetamide] | 4.11 | > 10
COc1ccc(-c2nn(CC(=O)N[C@H]3C[C@@](C)(O)C3)c(=O)c3cc(C4CC4)nn23)cc1 [Final Cpd 199, 2-(2-cyclopropyl-7-(4-methoxyphenyl)-4-oxopyrazolo [1,5-d] [1,2,4]triazin-5(4H)-yl)-N-((1 s,3 s)-3-hydroxy-3-methylcyclobutyl)acetamide] | > 10 | > 10
CC(C)c1nn(CC(=O)Nc2ccc(=O)n(C)n2)c(=O)c2cc(C3CC3)nn12 [Final Cpd 81] | 0.16 | > 10
COCCCc1nn(CC(=O)N[C@H]2C[C@@](C)(O)C2)c(=O)c2cc(C3CC3)nn12 [Final Cpd 194, 2-(2-cyclopropyl-7-(3-methoxypropyl)-4-oxopyrazolo[1,5-d][1,2,4]triazin-5(4H)-yl)-N-((ls,3s)-3-hydroxy-3-methylcyclobutyl)acetamide] | > 10 | > 10
CCc1nn(CC(=O)Nc2ccncc2)c(=O)c2ccnn12 [Final Cpd 79] | > 10 | > 10
CCCCc1nn(CC(=O)N[C@H]2C[C@@](C)(O)C2)c(=O)c2cc(C3CC3)nn12 [Final Cpd 196] | > 10 | > 10
Cc1nn(CC(=O)NC2(C(F)(F)F)CCOC2)c(=O)c2cc(C3CC3)nn12 (stereo not drawn) [Final Cpd 51] | > 10 | > 10
CC(C)c1nn(CC(=O)Nc2ccncn2)c(=O)c2cc(N3CCC3)nn12 [Final Cpd 21] | 2.75 | > 10
Cc1nn(CC(=O)NC2(C)CCC2)c(=O)c2cc(C3CC3)nn12 [Final Cpd 62] | 8.53 | > 10
CC(C)c1nn(CC(=O)Nc2ccc3nccn3c2)c(=O)c2cc(C3CC3)nn12 [Final Cpd 91] | 0.31 | > 10
Cc1nn(CC(=O)NC23CCCC2C2CCCC23)c(=O)c2cc(C3CC3)nn12 (stereo not drawn) [Final Cpd 67] | > 10 | > 10
CC(C)c1nn(CC(=O)Nc2ccncn2)c(=O)c2cc(N)nn12 [Final Cpd 186, 2-(2-amino-7-isopropyl-4-oxopyrazolo[1,5-d][1,2,4]triazin-5(4H)-yl)-N-(pyrimidin-4-yl)acetamide] | > 10 | > 10
CC(C)c1nn(CC(=O)Nc2cc(C#N)c3nncn3c2)c(=O)c2cc(C3CC3)nn12 [Final Cpd 193, N-(8-cyano-[1,2,4]triazolo[4,3-a]pyridin-6-yl)-2-(2-cyclopropyl-7-isopropyl-4-oxopyrazolo[1,5-d][1,2,4]triazin-5(4H)-yl)acetamide] | 0.98 | > 10
C=CC(C)c1nn(CC(=O)N[C@H]2C[C@@](C)(O)C2)c(=O)c2cc(C3CC3)nn12 (stereo partly drawn) [Final Cpd 200] | > 10 | > 10
